Test results as given in ChEMBL document CHEMBL1158818, “Alkaloids from the sponge Monanchora unguifera” (J Nat Prod, 2005).

What was measured:
Assay type in all cases: functional, cell-based
DU-145 = experiment: Cytotoxicity against human DU145 cells
P388 = experiment: Cytotoxicity against mouse P388 cells
HT-29 = experiment: Cytotoxicity against human HT-29 cells
SK-MEL-28 = experiment: Cytotoxicity against human SK-MEL-28 cells
A549 = experiment: Cytotoxicity against human A549 cells

Measured: IC50

CCCCCCC[C@@H]1C[C@@H]2CCC3=C(C(=O)OCCCCCCC[C@@H]4C[C@@H]5CCC6=C(C(=O)OCCCCNC(=N)N)C(C)N=C(N4)N65)C(C)N=C(N1)N32 (stereo not given in full) [BATZELLADINE J]
> 1 µg/mL: all assays above
